Earlier results on one compound are cited in US11413271B2, “Oral eliglustat transmucosal delivery system” (ABON PHARMACEUTICALS LLC., priority 2018, dated 2022).

For `CCCCCCCC(=O)N[C@H](CN1CCCC1)[C@H](O)c1ccc2c(c1)OCCO2` [eliglustat], the “Bioavailability in EMs (estimated)” value (CYP2D6 extensive metabolizers) is on record as “about 4.17%”. The “Increase of systemic exposure (AUC0-12) at steady state compared to after the first dose (AUC0-∞)” value (multiple oral doses of 84 mg twice daily in EMs) was “up to 2 fold”.
